Laboratory results: patent publication US8252832B2, “Kinesin inhibitors as cancer therapeutics” (Novartis AG, priority 2007, dated 2012)
Like-named read-outs stand apart in the source and are kept apart here.

Legend:
Assay in all cases: CellTiter-Glo, NCI60 panel
Assay type in all cases: cell-based, human
[1] = tested on: HCT-116; conditions: Colon; for GI50: Homo sapiens
Excerpt: (§1) Identification of tumor types that are the most sensitive to the KSP inhibitors of the present invention can be accomplished using an unbiased approach that uses several cell-based assays. The assays chosen were as follows: • CellTiter-Glo®. This is an assay designed to measure ATP concentration in a cell culture, and can be correlated to cell number. Briefly CellTiter-Glo® (Promega Corporation) is a homogeneous method using the single CellTiter-Glo® reagent to detect ATP wherein ATP in the assay drives the activity of a thermostable luciferase to create a luminescent signal which can then be measured and correlated with the number of viable cells. Briefly, for adherent cells, 1,000 to 5,000 cells/well were plated in 96-well plates (100 μl/well) and let to adhere for 24 hours before being treated with drug. For non-adherent cells, 1,000 to 10,000 cells/well were plated in 96-well plates (100 μl/well) and immediately treated with drug. Drug dilutions were prepared in DMSO at 1000 times the final concentration. These dilutions were then diluted 1/100 in growth media before being added to the cells (11 μl/well) to achieve the desired final concentration. After 48 h in a 37° C. tissue culture incubator, the plates were processed for the CellTiter-Glo®assay according to the manufacturer's instructions. Protocol for a 72 hour cell proliferation assay: The 72 hour assay was performed the same way as the 48 hour assay except for the following modifications: For adherent cells, 500 to 5,000 cells/well were plated in 96-well plates (90 μl/well cell growth media) and left to adhere for 24 hours before being treated with drug. For non-adherent cells, 1,000 to 10,000 cells/well were plated in 96-well plates (90 μl/well cell growth media) and immediately treated with drug. Data values presented represent the concentration of test compound required for a 50% reduction in growth. • LDH release. The Cytotoxicity Detection KitPLUS (LDH) assay (Roche Diagnostics, Manheim, Germany) measures the amount of LDH released in the media by dying cells; LDH catalyzes the conversion of lactate into pyruvate. The enzymatic reaction is coupled to a chemical reaction that uses a tetrazolium salt to form a formazan that is red and can be detected by its absorbance at 490 nm. This assay measures the amount of cell death after drug treatment. Cells were plated at 10,000 cells/well in 96-well plates (100 μl/well). Adherent cells were let to adhere for 24 hours before being treated with drug, whereas non-adherent cells were immediately treated with drug. Drug dilutions were prepared in DMSO at 1000 times the final concentration. These dilutions were then diluted 1/100 in growth media before being added to the cells (11 μl/well) to achieve the desired final concentration. After 48 h in a 37° C. tissue culture incubator, the plates were processed for the Cytotoxicity Detection KitPLUS (LDH) assay according to the manufacturer's instructions. The media only values were subtracted from all the data points before analysis. Data values presented correspond to the compound concentration wherein LDH output is at half maximal level. • Caspase-Glo® 3/7. The Caspase-Glo® 3/7 Assay (Promega Corporation) is a homogeneous luminescent assay that measures caspase-3/7 activities. The assay provides a proluminescent caspase-3/7 DEVD-aminoluciferin substrate and a thermostable luciferase in a reagent optimized for caspase-3/7 activity, luciferase activity and cell lysis. Adding the single Caspase-Glo® 3/7 Reagent results in cell lysis, followed by caspase cleavage of the substrate. This liberates free aminoluciferin, which is consumed by the luciferase, generating a luminescent signal. The signal is proportional to caspase-3/7 activity. Data values presented correspond to the compound concentration wherein caspase 3/7 activity is at half maximal level. […]

[2] = tested on: HT29; conditions: for GI50: Homo sapiens, HT-29, Colon
Excerpt: as §1

[3] = tested on: T-47D; conditions: Breast; for GI50: Homo sapiens, T47D
Excerpt: as §1

[4] = tested on: HCT-15; conditions: Colon; for GI50: Homo sapiens
Excerpt: as §1

[5] = tested on: COLO 205; conditions: Colon; for GI50: Homo sapiens
Excerpt: as §1

[6] = GI50 in nM, read-out: Log(GI50) (converted)

Compound: CC(C)(C)[C@H](c1nc(-c2cc(F)ccc2F)cn1Cc1ccccc1)N(CC[C@H](N)CF)C(=O)CO [Compound IIa]
- Differential vs mean Log(GI50) [1]: 1.191
- GI50 [1, 6]: 0.138 nM
- GI50 ([1]; read-out: GI50): 0.138 nM
- Differential vs mean Log(GI50) ([2]; Colon): −0.669
- GI50 [2, 6]: 10 nM
- GI50 ([2]; read-out: GI50): 10 nM
- Differential vs mean Log(GI50) [3]: −0.669
- GI50 [3, 6]: 10 nM
- GI50 ([3]; read-out: GI50): 10 nM
- Differential vs mean Log(GI50) [4]: 0.754
- GI50 [4, 6]: 0.378 nM
- GI50 ([4]; read-out: GI50): 0.378 nM
- Differential vs mean Log(GI50) [5]: −0.669
- GI50 [5, 6]: 10 nM
- GI50 ([5]; read-out: GI50): 10 nM
